Legend:
[1] = tested on: recto-anus swelling induced by croton oil; assay: Croton oil-induced hemorrhoid model in rats (swelling of the recto-anus, RAC); format: in vivo, rat; conditions: with croton oil (3%) induction, 24 h after induction; oral once per day for five days; 20 mg/kg carnitines, 30 mg/kg flavonoids; male SD rats, n = 5
Procedure: Male SD rats (6 weeks old, approximately 140 g) were purchased from Harlan Sprague Dawley and allowed to acclimate for 1 week. The rats were maintained in a pathogen-free facility in accordance with the National Research Council of Laboratory Animal care and use guidelines. Each experiment was preformed with age-matched rats 7-8 weeks old. The croton oil-induced hemorrhoid model in rats was performed according to the method published by Nishiki (Nishiki et al. (1988) Folia Pharmacology Japan 92:215-225; Nishiki et al. (1988) Folia Pharmacol. Japan 92:227-240). Briefly, a cotton swab with a diameter of 4 mm soaked with 0.16 mL of inducer (deionized water:pyridine:ethyl ether:6% croton oil/ethyl ether (1:4:5:10) was applied to the rat's anus for 12 seconds. The final concentration of croton oil was 3%. The edema developed linearly until 7-8 hours after application and the severity of the edema was sustained for more than 24 hours. Twenty-four hours later, recto-anus tissue (approx. 10 mm long) was isolated after the rats were euthanized. The weights of rat body and recto-anus were measured. The recto-anus coefficient (RAC) was calculated using the formula: weight of recto-anus (mg)/body weight (g). […]
Twenty-four hours after hemorrhoid induction with croton oil the RAC of rats was determined.

[2] = tested on: isolated aorta from spontaneously hypertensive rats; assay: Relaxant effect on aortic rings precontracted by phenylephrine; parameters: species or system rat; conditions: 100 micro-molar each component, final concentration in organ chamber; rings precontracted by phenylephrine (1 micromolar); n=8
Procedure: The objective of this study was to investigate the vasoarelaxation effects of the compositions of the invention using isolated aorta from spontaneously hypertensive rats. The compounds tested were used at a concentration expressed as final concentration in the organ chamber. Male spontaneously hypertensive rats (SHR) 10-12 weeks old, weighing 250-300 g, were housed at 24±2° C. with 60±20% relative humidity, on a 12-h light-dark cycle. Rats were given free access to a diet of standard food and water. All experiments were performed according to the guidelines for the ethical treatment of animals of the European Union. The rats were killed by cervical dislocation and the aortae were rapidly dissected. […] Aortic rings were mounted under a basal tension of 2 g in 20 mL organ baths containing PSS and attached to an isometric transducer (Harvard UF-1); the signal was recorded by a Powerlab data acquisition system (AD-Instruments). […] The relaxant effect of compounds tested was assessed by adding the compound to aortic rings precontracted by phenylephrine (1 micromolar). […] All the results were expressed as a percentage of the maximal contraction of phenylephrine-induced responses. Results are expressed as percentages from the initial precontraction level. The significance was calculated on the actual contraction values means±SE (n=8 aorta preparations per group). […]

With `COc1ccc([C@@H]2CC(=O)c3c(O)cc(O[C@@H]4O[C@H](CO[C@@H]5O[C@@H](C)[C@H](O)[C@@H](O)[C@H]5O)[C@@H](O)[C@H](O)[C@H]4O)cc3O2)cc1O` [Hesperidine, hesperidine] the “RAC (recto-anus coefficient: weight of recto-anus (mg)/body weight (g))” value [1] was 2.07 and the “% RELAXATION” value [2] was 9%.
In the case of `CCC(=O)O[C@H](CC(=O)[O-])C[N+](C)(C)C` [Propionyl L-carnitine, propionyl L-carnitine], the “RAC (recto-anus coefficient: weight of recto-anus (mg)/body weight (g))” value [1] was 1.96 and the “% RELAXATION” value [2] was 28%.

Source: patent US9457037B2, “Combination composition, comprising as active ingredients L-carnitine or propionyl L-carnitine, for the prevention or treatment of chronic venous insufficiency” (SIGMA-TAU INDUSTRIE FARMACEUTICHE RIUNITE S.P.A., priority 2010, dated 2016)
